The results in this text go back to ChEMBL document CHEMBL4616600, “Synthesis and cytotoxic evaluation of halogenated α-exo-methylene-lactones” (Bioorg Med Chem, 2020).

pIC50: −log10 of the molar value.

Test [1] is described as follows: Antiproliferative activity against human H1975-1 harboring EGFR L858R/T790M mutant measured after 72 hrs by sulforhodamine B assay. In kind it is functional. In general terms: In SRB staining, fixed cells bind dye roughly in proportion to their protein.
The next test has as its system A-431. In words: Antiproliferative activity against human A431 wild type cells measured after 72 hrs by Sulforhodamine B assay. Type of test: functional, cell-based. Conditions: A-431, 72 h.
The test system of the next test is HCC827. The test is described as follows: Antiproliferative activity against human HCC827 cells measured after 72 hrs by sulforhodamine B assay. Conditions: HCC827, 72 h. Type of test: functional, cell-based.
The next test deals with L02. The test is described as follows: Cytotoxicity against human HL7702 cells measured after 72 hrs by sulforhodamine B assay. In kind it is cell-based. Conditions: L02, 72 h.
The test system of a further test is A549. In words: Antiproliferative activity against human A549 cells measured after 72 hrs by sulforhodamine B assay. The note with it: A549, 72 h. In kind it is functional, cell-based.
The target of test [2] is Epidermal growth factor receptor (Homo sapiens, UniProt P00533). In words: Inhibition of wild type EGFR (unknown origin).
Sequence of Epidermal growth factor receptor (Homo sapiens, UniProt P00533) (P00533 whole entry): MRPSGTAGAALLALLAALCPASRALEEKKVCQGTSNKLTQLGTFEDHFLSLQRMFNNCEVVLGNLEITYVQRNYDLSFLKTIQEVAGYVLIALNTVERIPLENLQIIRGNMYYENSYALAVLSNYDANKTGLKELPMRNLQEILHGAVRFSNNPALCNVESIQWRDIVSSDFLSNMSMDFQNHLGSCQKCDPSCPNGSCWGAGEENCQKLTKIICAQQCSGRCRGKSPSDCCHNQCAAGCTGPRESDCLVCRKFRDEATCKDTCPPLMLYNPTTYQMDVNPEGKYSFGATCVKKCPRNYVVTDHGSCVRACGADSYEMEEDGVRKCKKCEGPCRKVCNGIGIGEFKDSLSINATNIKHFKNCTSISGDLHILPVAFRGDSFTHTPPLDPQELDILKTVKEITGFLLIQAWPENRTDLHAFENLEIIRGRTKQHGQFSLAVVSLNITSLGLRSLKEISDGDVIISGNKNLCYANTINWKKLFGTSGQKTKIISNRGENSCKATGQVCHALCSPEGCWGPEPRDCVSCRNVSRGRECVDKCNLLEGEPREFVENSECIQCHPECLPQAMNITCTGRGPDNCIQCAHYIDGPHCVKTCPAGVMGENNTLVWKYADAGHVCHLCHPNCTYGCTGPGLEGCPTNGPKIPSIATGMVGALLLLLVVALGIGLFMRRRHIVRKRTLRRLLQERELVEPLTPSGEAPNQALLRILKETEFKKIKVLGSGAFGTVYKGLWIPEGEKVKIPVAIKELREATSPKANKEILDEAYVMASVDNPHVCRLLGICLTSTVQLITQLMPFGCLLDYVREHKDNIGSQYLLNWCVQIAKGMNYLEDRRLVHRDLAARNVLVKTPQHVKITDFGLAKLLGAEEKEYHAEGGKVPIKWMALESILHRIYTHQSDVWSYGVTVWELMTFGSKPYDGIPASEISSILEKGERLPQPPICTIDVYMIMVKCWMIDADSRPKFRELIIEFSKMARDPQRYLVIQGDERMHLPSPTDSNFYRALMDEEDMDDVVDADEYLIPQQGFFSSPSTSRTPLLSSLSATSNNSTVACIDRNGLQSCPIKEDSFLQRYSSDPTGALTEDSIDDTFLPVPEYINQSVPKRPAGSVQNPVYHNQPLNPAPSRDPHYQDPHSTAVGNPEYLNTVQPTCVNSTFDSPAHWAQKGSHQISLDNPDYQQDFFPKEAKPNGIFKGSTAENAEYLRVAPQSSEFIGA
Test [3] concerns the target Epidermal growth factor receptor (Homo sapiens, UniProt P00533, L858R/T790M). The test is described as follows: Inhibition of EGFR L858R/T790M (unknown origin).

Sequence of Epidermal growth factor receptor (Homo sapiens, UniProt P00533, L858R/T790M) (P00533 25-1210 T790M/L858R limits assumed): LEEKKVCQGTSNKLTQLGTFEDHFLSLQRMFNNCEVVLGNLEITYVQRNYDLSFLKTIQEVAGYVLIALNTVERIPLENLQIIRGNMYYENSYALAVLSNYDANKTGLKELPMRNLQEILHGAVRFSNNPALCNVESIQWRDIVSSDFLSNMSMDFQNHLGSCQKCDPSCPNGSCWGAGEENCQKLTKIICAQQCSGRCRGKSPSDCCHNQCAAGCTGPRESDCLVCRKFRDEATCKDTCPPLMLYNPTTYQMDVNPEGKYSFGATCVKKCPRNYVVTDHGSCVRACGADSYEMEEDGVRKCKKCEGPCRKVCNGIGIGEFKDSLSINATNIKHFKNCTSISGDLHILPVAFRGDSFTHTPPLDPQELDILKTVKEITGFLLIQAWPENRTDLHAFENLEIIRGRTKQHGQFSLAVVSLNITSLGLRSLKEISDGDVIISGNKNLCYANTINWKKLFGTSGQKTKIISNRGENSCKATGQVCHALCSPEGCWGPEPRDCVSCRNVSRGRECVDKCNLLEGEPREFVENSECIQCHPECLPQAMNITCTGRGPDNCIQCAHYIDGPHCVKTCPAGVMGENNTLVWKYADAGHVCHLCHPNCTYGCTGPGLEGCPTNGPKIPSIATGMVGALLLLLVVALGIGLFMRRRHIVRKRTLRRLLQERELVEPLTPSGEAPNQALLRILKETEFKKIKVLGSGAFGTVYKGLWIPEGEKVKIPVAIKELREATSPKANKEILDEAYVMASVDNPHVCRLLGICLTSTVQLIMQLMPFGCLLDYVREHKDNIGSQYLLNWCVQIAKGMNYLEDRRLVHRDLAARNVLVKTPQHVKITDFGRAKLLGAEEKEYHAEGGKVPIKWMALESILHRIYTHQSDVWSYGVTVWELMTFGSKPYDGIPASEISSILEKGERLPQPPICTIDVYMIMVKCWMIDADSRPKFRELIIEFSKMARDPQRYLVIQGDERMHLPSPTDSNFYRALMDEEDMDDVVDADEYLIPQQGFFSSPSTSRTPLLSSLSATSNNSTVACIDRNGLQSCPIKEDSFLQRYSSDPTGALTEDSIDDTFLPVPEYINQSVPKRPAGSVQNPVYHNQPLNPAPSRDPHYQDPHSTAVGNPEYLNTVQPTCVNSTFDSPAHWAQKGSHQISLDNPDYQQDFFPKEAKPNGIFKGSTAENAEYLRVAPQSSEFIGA

For orientation: pIC50 means the IC50 on a negative log10 scale, so that one unit is a factor of ten. High values mean a low IC50, low ones a high IC50. `C=C1CC(CBr)(c2ccccc2OC)OC1=O` (racemic): the negative logarithm of the IC50 (pIC50) in test [1] is 5.96; in the test on A-431 it was 5.62.
For `C=C1CC(CBr)(c2ccc(C(F)(F)F)cc2)OC1=O` (racemic), in that order: 5.71 and 6.00.
As to `C=CC(=O)Nc1cc(Nc2nccc(-c3cn(C)c4ccccc34)n2)c(OC)cc1N(C)CCN(C)C` [OSIMERTINIB], the pIC50 in test [1] was 7.70; with A-431 it was […]; in the test on HCC827, 6.70; in the test on L02, 6.52; in the test on A549 it was 6.85.
For `C=C1CC(CBr)(c2ccccc2F)OC1=O` (racemic), the pIC50 in test [1] was 5.89; with A-431, 5.77.
In the same order, the values of `C=C1C[C@@](CCl)(c2ccccc2)OC1=O` are 4.67 and 4.37.
Turning to `C=C1CC(CI)(c2ccccc2)OC1=O` (racemic), the negative-log IC50 (pIC50) in test [2] was 4.33; in test [1], 6.19; in the test with A-431, 5.57; with HCC827 it was 5.66; with L02, 5.66; with A549, 5.70. In test [3], this molecule showed a negative logarithm of the IC50 (pIC50) of 4.59.
Take `C=C1CC[C@@](CBr)(c2ccccc2)OC1=O`: the pIC50 was 5.79 in test [1] and 5.66 in the test with A-431.
In the same order, the values of `C=C1CC(CBr)(c2ccc(Cl)cc2)OC1=O` (racemic) are 5.81 and 5.96.
In the same order, the values of `C=C1CN(S(=O)(=O)c2ccc([N+](=O)[O-])cc2)CC(CBr)(c2ccccc2)OC1=O` (racemic) are 4.62 and 4.67.
In the same order, the values of `C=C1CC(C(Br)c2ccccc2)OC1=O` (racemic) are 5.21 and 4.69.
On to `C=C1C[C@@]2(CCCc3ccccc3[C@@H]2Br)OC1=O`, for which the negative logarithm of the IC50 (pIC50) in test [1] was 6.00; in the test with A-431 it was 5.60.
Regarding `C=C1CC(CO)(c2ccccc2)OC1=O` (racemic), the negative-log IC50 (pIC50) in test [1] is 5.65; in the test with A-431 it was 5.39.
For `C=C1CC(CBr)(c2ccc(C)cc2)OC1=O` (racemic), in that order: 5.96 and 5.66.
For `C=C1CC(c2ccccc2)(C(Cl)c2ccccc2)OC1=O` (racemic), the negative-log IC50 (pIC50) in test [1] was 5.90; with A-431 it was 5.56.
For the molecule `C=C1C(=O)O[C@@H]2C3O[C@]3(C)CC/C=C(\C)CC[C@@H]12` (stereo partly drawn), the results for the pIC50 (in test [1]; in the test on A-431) were 5.84 and 5.59, respectively.
In the same order, the values of `C=C1C[C@]2(CCc3ccccc3[C@H]2Br)OC1=O` are 5.91 and 5.39.
In the case of `C=C1CC(CBr)(c2ccc(F)cc2)OC1=O` (racemic), the pIC50 is 4.19 in test [2]; 6.22 in test [1]; 6.10 with A-431; 5.64 in the test with HCC827; 5.62 in the test with L02; 5.77 in the test with A549. This molecule gave a pIC50 in test [3] of 4.52.
For `C=C1CC(C)(CBr)OC1=O` (racemic), the negative-log IC50 (pIC50) was 4.49 in test [1] and 3.91 in the test on A-431.
Consider `C=C1C[C@](CBr)(c2ccccc2)OC1=O`, for which the pIC50 was 6.01 in test [1] and 5.88 in the test with A-431.
With `C=C1CC(CBr)(c2ccccc2C)OC1=O` (racemic), the pIC50 in test [1] was 5.46; with A-431 it was 5.26.
For `C=C1CC(CBr)(c2ccccc2)OC1=O` (racemic), in that order: 6.10 and 5.83.
As to `C=C1C[C@](CCl)(c2ccccc2)OC1=O`, the pIC50 is 5.01 in test [1] and 4.51 in the test with A-431.
In the same order, the values of `C=C1CC2(CCCc3ccccc3C2Br)OC1=O` (racemic) are 5.97 and 5.90.
Take `C=C1CC(c2ccccc2)(C(Br)c2ccccc2)OC1=O` (racemic): the pIC50 in test [2] was 4.54; in test [1] it was 6.60; in the test on A-431 it was 5.38; with HCC827 it was 6.00; with L02, 6.02; in the test with A549 it was 5.86. Moreover, the pIC50 in test [3] was 4.85.
Turning to `CC(=O)O[C@H]1C(=O)[C@@]2(C)[C@H]([C@H](OC(=O)c3ccccc3)[C@]3(O)C[C@H](OC(=O)[C@H](O)[C@@H](NC(=O)c4ccccc4)c4ccccc4)C(C)=C1C3(C)C)[C@]1(OC(C)=O)CO[C@@H]1C[C@@H]2O` [PACLITAXEL], the pIC50 in test [1] was 8.52; with A-431, 8.70.
For `C=C1CC(CBr)(c2ccc(OC)cc2)OC1=O` (racemic), in that order: 5.64 and 5.38.
In the case of `C=C1C[C@]2(Cc3ccccc3[C@H]2Br)OC1=O`, the pIC50 in test [1] was 5.36; in the test with A-431 it was 5.68.
Regarding `C=C1CC(CBr)(c2cccc(C)c2)OC1=O` (racemic), the figures for the negative logarithm of the IC50 (pIC50) (in test [1]; in the test with A-431) were 5.92 and 5.35, respectively.
With `C=C1C[C@]2(CCCc3ccccc3[C@H]2Br)OC1=O`, the negative logarithm of the IC50 (pIC50) was 5.92 in test [1] and 5.48 in the test with A-431.
For `C=C1CC(C[Se]c2ccccc2)(c2ccccc2)OC1=O` (racemic), in that order: 5.89 and 5.90.
`C=C1CC(CI)(c2ccc(F)cc2)OC1=O` (racemic): the negative-log IC50 (pIC50) was 4.62 in test [2]; 6.22 in test [1]; 5.72 in the test on A-431; 5.96 with HCC827; 5.92 in the test on L02; 5.92 in the test on A549. The molecule also gave a negative-log IC50 (pIC50) in test [3] of 4.82.
On to `C=C1C[C@]2(CCCC[C@H]2Br)OC1=O` (racemic), for which the values for the pIC50 (in test [1]; with A-431) were 5.34 and 4.67, respectively.
In the same order, the values of `C=C1CC(c2ccccc2)(C(C)Br)OC1=O` (racemic) are 5.78 and 5.28.
In the same order, the values of `C=C1CC(CF)(c2ccccc2)OC1=O` (racemic) are 4.87 and 4.60.
Take `C=C1CC[C@](CBr)(c2ccccc2)OC1=O`: the values for the negative-log IC50 (pIC50) (in test [1]; in the test on A-431) were 5.88 and 4.96, respectively.
